The results in this text go back to US20240409536A1, “COMPOUNDS AND METHODS FOR MODULATING SPLICING” (REMIX THERAPEUTICS INC., priority 2021, published 2024).

In data set [1] the test system is HiBiT-tagged HTT protein. As to the kind of experiment: HiBiT protein abundance assay, HTT (K562 HiBiT knock-in cells). It counts as cell-based, human. Conditions: 24 hours. The procedure, abridged:
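Luminescent readout of HiBiT-tagged endogenous protein after lysis, following 24 h compound exposure of knock-in K562 lines at 37 °C. Ten 3-fold concentrations from 10 μM final, DMSO ≤0.25%. Four-parameter logistic fit of normalized response gives concentration halving abundance (IC50).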
In general terms: The HiBiT peptide binds its large partner to form an active luciferase.

In data set [2] the test system is HTT mRNA. As to the kind of experiment: Splicing RT-qPCR assay, HTT canonical (CJ) and alternative (AJ) junction mRNA. It counts as cell-based. Conditions: Homo sapiens, A673 or K562 cells, 24 hours; for IC50: decrease in canonical junction mRNA; for AC50: increase in alternative junction mRNA. In a few lines:
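Housekeeping-normalized RT-qPCR of canonical and alternative junctions in lysates of A673 or K562 cells exposed 24 h to compound (11 points, 3-fold steps, max 10 uM).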

For data set [3], the system named is K562 cells. As to the kind of experiment: Cell Titer Glo 2.0 cell viability assay in K562 cells. Conditions: 72 hours. (In general: Cellular ATP, detected with luciferase, serves as a proxy for viable cell number.)
The subject of data set [4] is Target C. The data set can be described thus: HiBiT protein abundance assay, Target C (K562 HiBiT knock-in cells). The data set is classed as cell-based, human. Conditions: 24 hours. The procedure, abridged: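 Protein abundance read by HiBiT lytic luminescence after 24 h compound exposure (37 °C) of knock-in K562 cells, 10000 cells/well in IMDM+1% FBS. Dosing: 10 points, 3-fold, top 10 μM final, ≤0.25% DMSO. Four-parameter logistic fit gave concentration reducing abundance to 50% of untreated control.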

As usually defined, the IC50 is the point on the concentration scale where inhibition reaches its midpoint. A word on the AC50: it is the concentration giving half of the maximal activity seen. High values mean weaker potency, low ones greater potency.

The structures appear in SMILES notation.

Consider `Cc1cn2cc(NC(=O)c3ccc(N4CCNC5(CC5)C4)c4nccnc34)cc(F)c2n1` [Compound 218, 8-{4,7-diazaspiro[2.5]octan-7-yl}-N-{8-fluoro-2-methylimidazo[1,2-a]pyridin-6-yl}quinoxaline-5-carboxamide], for which the IC50 is 1000 to 10000 nM in data set [1], above 10000 nM in data set [2] and 1000 to 10000 nM in data set [4]. Also, the AC50 in data set [2] lay in the range of 1000 to 10000 nM. In addition, the Viability result in data set [3] is reported as “B (B represents 100-1000 nM)”.

`Cc1cn2cc(NC(=O)c3ccc(N4CC(C)(C)NC(C)(C)C4)c4nccnc34)cc(F)c2n1` [Compound 219, N-{8-fluoro-2-methylimidazo[1,2-a]pyridin-6-yl}-8-(3,3,5,5-tetramethylpiperazin-1-yl)quinoxaline-5-carboxamide]: the IC50 in data set [1], in data set [2] and in data set [4] was 1000 to 10000 nM in each case. This molecule also displayed an AC50 in data set [2] of 1000 to 10000 nM. For the same molecule, the Viability entry in data set [3] was “A (A represents <100 nM)”.

With `Cc1cn2cc(NC(=O)c3ccc(N4CCNC(C)(C)C4)c4nccnc34)cc(F)c2n1` [Compound 220, 8-(3,3-dimethylpiperazin-1-yl)-N-{8-fluoro-2-methylimidazo[1,2-a]pyridin-6-yl}quinoxaline-5-carboxamide], the IC50 in data set [1], in data set [2] and in data set [4] was 1000 to 10000 nM each time. Besides, the concentration at half-maximal activity (AC50) in data set [2] was in the range of 1000 to 10000 nM. For the same molecule, the Viability entry in data set [3] is “A (A represents <100 nM)”.

Turning to `CCNC1CCN(c2ccc(C(=O)Nc3cc(F)c4nc(C)sc4c3)c3nnccc23)CC1` [Compound 221, 5-[4-(ethylamino)piperidin-1-yl]-N-(4-fluoro-2-methyl-1,3-benzothiazol-6-yl)cinnoline-8-carboxamide], the IC50 in data set [1], in data set [2] and in data set [4] was 1000 to 10000 nM throughout. This molecule also gave a concentration at half-maximal activity (AC50) in data set [2] of 1000 to 10000 nM. For the same molecule, the Viability result in data set [3] was “B (B represents 100-1000 nM)”.

Consider `COc1cnc2c(C(=O)Nc3cc(F)c4nc(C)cn4c3)ccc(N3C[C@@H](C)N[C@@H](C)C3)c2n1` [Compound 223], for which the half-inhibitory concentration (IC50) in data set [1], in data set [2] and in data set [4] was 100 to 1000 nM in each case. In data set [2], this molecule displayed an AC50 of 100 to 1000 nM. The Viability result in data set [3] was “B (B represents 100-1000 nM)”.

Consider `COc1cnc2c(C(=O)Nc3cc(F)c4nc(C)cn4c3)ccc(N3CCNCC3)c2n1` [Compound 225, N-{8-fluoro-2-methylimidazo[1,2-a]pyridin-6-yl}-2-methoxy-8-(piperazin-1-yl)quinoxaline-5-carboxamide], for which the IC50 in data set [1], in data set [2] and in data set [4] was above 10000 nM in each case. The AC50 in data set [2] was above 10000 nM. For the same molecule, the Viability result in data set [3] was “C (C represents 1000-9999 nM)”.

On to `Cc1cn2cc(NC(=O)c3ccc(N4CCN(CCF)C5(CC5)C4)c4nccnc34)cc(F)c2n1` [Compound 370], for which the IC50 in data set [1], in data set [2] and in data set [4] was above 10000 nM throughout. Further, the half-maximal activity concentration (AC50) in data set [2] is above 10000 nM. In data set [3], the Viability result is reported as “D (D represents greater than 10 μM in K562 cells)”.

Turning to `Cc1cn2cc(NC(=O)c3ccc(C4CCNCC4)c4nccnc34)cc(F)c2n1` [Compound 371], the IC50 in data set [1], in data set [2] and in data set [4] was 100 to 1000 nM throughout. Further, the concentration at half-maximal activity (AC50) in data set [2] was 100 to 1000 nM. The Viability entry in data set [3] was “A (A represents <100 nM)”.

For the molecule `Cc1cn2cc(NC(=O)c3ccc(N4CCNC5(COC5)C4)c4nccnc34)cc(F)c2n1` [Compound 372], the concentration for half-maximal inhibition (IC50) in data set [1], in data set [2] and in data set [4] was above 10000 nM in each case. Also, in data set [2], the AC50 is above 10000 nM. Further, the Viability result in data set [3] is “C (C represents 1000-9999 nM)”.

`Cc1cn2cc(NC(=O)c3ccc(N4CCNC5(CCOC5)C4)c4nccnc34)cc(F)c2n1` (stereo not drawn) [Compound 373]: the concentration for half-maximal inhibition (IC50) in data set [1] is 1000 to 10000 nM; in data set [2], above 10000 nM; in data set [4] it was 1000 to 10000 nM. The molecule also had a half-maximal activity concentration (AC50) in data set [2] above 10000 nM. For the same molecule, in data set [3], the Viability entry is on record as “B (B represents 100-1000 nM)”.

Turning to `Cc1cn2cc(NC(=O)c3ccc(N4CCNC5(CCOCC5)C4)c4nccnc34)cc(F)c2n1` [Compound 374], the 50% inhibitory concentration (IC50) in data set [1], in data set [2] and in data set [4] was 1000 to 10000 nM each time. In data set [2], this molecule came in with a half-maximal activity concentration (AC50) of 1000 to 10000 nM. The Viability entry in data set [3] is reported as “B (B represents 100-1000 nM)”.

As for `Cc1cn2cc(NC(=O)c3ccc(C4CCNC5(CC5)C4)c4nccnc34)cc(F)c2n1` (stereo not drawn) [Compound 375], the IC50 in data set [1], in data set [2] and in data set [4] was 1000 to 10000 nM in each case. Moreover, the AC50 in data set [2] was in the range of 1000 to 10000 nM. Moreover, the Viability result in data set [3] is “B (B represents 100-1000 nM)”.

With `Cc1cn2cc(NC(=O)c3ccc(N4C[C@@H](C)NC5(CC5)C4)c4nccnc34)cc(F)c2n1` [Compound 376], the half-maximal inhibitory concentration (IC50) is 1000 to 10000 nM in data set [1], above 10000 nM in data set [2] and above 10000 nM in data set [4]. Besides, the half-maximal activity concentration (AC50) in data set [2] is above 10000 nM. Besides, in data set [3], the Viability entry was “B (B represents 100-1000 nM)”.

As for `Cc1cn2cc(NC(=O)c3ccc(N4C[C@H](C)NC5(CC5)C4)c4nccnc34)cc(F)c2n1` [Compound 377], the half-inhibitory concentration (IC50) in data set [1], in data set [2] and in data set [4] was 1000 to 10000 nM each time. Further, in data set [2], the AC50 was 1000 to 10000 nM. Besides, in data set [3], the Viability entry is “B (B represents 100-1000 nM)”.

Regarding `COc1ncc2c(N3C[C@@H](C)N[C@@H](C)C3)ccc(C(=O)Nc3cn4cc(C)nc4c(OC)n3)c2n1` [Compound 378], the half-inhibitory concentration (IC50) in data set [1], in data set [2] and in data set [4] was 100 to 1000 nM each time. The molecule further returned an AC50 in data set [2] of 100 to 1000 nM. Besides, in data set [3], the Viability entry was “A (A represents <100 nM)”.
